In ChEMBL document CHEMBL5653615 (J Biol Chem, 2013):

Tests used:
[1] = biological target: Receptor-type tyrosine-protein kinase FLT3 (Homo sapiens) (UniProt P36888); assay: Inhibition of human FLT3 at 18.6 nM by HotSpot assay relative to control
[2] = biological target: Fibroblast growth factor receptor 4 (Homo sapiens) (UniProt P22455); assay: Inhibition of human FGFR4 at 18.6 nM by HotSpot assay relative to control
[3] = biological target: Phosphorylase b kinase gamma catalytic chain, skeletal muscle/heart isoform (Homo sapiens) (UniProt Q16816); assay: Inhibition of human PHKg1 at 18.6 nM by HotSpot assay relative to control
[4] = biological target: Serine/threonine-protein kinase 24 (Homo sapiens) (UniProt Q9Y6E0); assay: Inhibition of human STK24 at 18.6 nM by HotSpot assay relative to control
[5] = biological target: T1, Serine/threonine-protein kinase Nek11 (Homo sapiens) (UniProt Q8NG66); assay: Inhibition of human NEK11 at 18.6 nM by HotSpot assay relative to control
T1 sequence (whole entry): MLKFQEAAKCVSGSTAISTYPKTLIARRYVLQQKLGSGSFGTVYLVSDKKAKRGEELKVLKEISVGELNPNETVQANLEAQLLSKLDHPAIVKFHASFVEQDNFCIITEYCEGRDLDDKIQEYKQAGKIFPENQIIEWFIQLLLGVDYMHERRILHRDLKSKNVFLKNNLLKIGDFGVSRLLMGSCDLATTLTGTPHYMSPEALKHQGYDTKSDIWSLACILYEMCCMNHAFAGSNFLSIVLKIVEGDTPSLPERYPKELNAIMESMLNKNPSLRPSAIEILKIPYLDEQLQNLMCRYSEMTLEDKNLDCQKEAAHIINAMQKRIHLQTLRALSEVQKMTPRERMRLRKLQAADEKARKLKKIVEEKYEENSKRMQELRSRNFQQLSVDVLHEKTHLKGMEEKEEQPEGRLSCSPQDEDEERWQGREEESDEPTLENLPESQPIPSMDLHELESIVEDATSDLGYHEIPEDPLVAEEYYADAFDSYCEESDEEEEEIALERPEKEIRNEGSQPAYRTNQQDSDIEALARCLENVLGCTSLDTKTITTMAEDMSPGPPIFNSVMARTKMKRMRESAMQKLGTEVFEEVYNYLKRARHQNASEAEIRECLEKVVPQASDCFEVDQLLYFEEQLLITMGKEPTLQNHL

[6] = biological target: T2, Inhibitor of nuclear factor kappa-B kinase subunit alpha (Homo sapiens) (UniProt O15111); conditions: dose 1.82 nM
T2 sequence (whole entry): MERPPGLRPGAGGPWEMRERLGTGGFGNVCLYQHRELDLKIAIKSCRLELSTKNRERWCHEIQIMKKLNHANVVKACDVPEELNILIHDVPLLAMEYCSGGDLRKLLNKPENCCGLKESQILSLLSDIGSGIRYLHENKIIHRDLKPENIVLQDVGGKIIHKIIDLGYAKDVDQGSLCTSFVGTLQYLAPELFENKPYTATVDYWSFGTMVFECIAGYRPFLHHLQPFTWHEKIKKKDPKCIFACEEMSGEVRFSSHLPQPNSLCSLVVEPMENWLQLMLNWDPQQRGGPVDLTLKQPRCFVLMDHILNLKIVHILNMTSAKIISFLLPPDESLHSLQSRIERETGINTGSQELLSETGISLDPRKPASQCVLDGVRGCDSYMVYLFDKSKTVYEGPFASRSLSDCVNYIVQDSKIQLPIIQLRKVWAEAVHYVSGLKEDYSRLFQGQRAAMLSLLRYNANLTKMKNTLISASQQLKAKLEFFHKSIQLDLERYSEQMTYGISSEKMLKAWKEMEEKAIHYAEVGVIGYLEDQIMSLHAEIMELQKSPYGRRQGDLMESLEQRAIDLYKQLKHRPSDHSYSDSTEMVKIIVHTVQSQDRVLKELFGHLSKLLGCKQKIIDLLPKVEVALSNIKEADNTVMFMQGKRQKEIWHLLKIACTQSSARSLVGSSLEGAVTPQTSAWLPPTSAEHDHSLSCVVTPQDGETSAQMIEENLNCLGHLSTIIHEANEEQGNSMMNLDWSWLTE
Description: Inhibition of human IKKa at 1.82 nM by HotSpot assay relative to control

[7] = biological target: Serine/threonine-protein kinase 26 (Homo sapiens) (UniProt Q9P289); assay: Inhibition of human MST4 at 1.82 nM by HotSpot assay relative to control
[8] = biological target: Cyclin-dependent kinase 7/ cyclin H (Homo sapiens) (UniProt P51946+P50613); assay: Inhibition of human CDK7/cyclin H at 1.82 nM by HotSpot assay relative to control; format: protein-complex assay
[9] = biological target: Ephrin type-A receptor 7 (Homo sapiens) (UniProt Q15375); assay: Inhibition of human EPHA7 at 1.82 nM by HotSpot assay relative to control
[10] = biological target: Serine/threonine-protein kinase 33 (Homo sapiens) (UniProt Q9BYT3); assay: Inhibition of human STK33 at 1.82 nM by HotSpot assay relative to control
[11] = biological target: Protein kinase C gamma type (Homo sapiens) (UniProt P05129); assay: Inhibition of human PKCg at 1.82 nM by HotSpot assay relative to control

Sequence of Serine/threonine-protein kinase 26 (Homo sapiens) (Q9P289 2-416 limits assumed): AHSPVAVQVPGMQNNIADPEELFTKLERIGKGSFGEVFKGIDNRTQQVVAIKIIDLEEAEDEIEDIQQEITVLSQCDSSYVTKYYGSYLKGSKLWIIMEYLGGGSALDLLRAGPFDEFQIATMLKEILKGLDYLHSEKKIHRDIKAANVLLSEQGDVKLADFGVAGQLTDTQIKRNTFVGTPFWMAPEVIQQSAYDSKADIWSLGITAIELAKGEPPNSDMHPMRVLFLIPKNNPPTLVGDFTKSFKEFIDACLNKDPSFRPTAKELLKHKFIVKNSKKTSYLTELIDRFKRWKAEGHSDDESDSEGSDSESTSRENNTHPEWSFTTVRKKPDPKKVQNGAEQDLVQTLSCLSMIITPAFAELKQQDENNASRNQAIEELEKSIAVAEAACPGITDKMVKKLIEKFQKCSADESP
Sequence of Ephrin type-A receptor 7 (Homo sapiens) (Q15375 28-998 limits assumed): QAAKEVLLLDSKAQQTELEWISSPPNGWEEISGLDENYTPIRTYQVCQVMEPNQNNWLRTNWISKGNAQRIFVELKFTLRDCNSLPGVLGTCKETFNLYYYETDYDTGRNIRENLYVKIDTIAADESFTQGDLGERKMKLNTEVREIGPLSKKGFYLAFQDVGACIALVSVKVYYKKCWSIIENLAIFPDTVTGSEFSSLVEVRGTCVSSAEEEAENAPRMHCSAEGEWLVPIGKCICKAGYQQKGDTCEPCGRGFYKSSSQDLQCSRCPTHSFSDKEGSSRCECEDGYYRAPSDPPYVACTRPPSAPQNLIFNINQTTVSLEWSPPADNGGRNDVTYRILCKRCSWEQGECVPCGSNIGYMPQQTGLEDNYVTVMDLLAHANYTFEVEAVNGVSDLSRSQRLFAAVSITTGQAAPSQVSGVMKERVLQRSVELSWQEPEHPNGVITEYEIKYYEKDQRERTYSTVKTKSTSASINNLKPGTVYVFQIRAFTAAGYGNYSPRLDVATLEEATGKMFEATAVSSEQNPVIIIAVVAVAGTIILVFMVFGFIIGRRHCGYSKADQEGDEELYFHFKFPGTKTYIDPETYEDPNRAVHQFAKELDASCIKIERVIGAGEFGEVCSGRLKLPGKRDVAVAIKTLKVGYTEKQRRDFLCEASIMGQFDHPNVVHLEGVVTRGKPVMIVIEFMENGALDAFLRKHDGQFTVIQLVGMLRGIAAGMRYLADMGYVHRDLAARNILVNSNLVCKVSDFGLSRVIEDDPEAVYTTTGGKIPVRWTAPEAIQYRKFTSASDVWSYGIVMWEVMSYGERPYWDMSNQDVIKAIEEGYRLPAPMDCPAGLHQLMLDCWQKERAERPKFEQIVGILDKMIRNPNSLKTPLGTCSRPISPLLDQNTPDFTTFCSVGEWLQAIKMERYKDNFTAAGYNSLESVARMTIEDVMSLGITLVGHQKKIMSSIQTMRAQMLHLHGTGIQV
Sequence of Fibroblast growth factor receptor 4 (Homo sapiens) (P22455 22-802 limits assumed): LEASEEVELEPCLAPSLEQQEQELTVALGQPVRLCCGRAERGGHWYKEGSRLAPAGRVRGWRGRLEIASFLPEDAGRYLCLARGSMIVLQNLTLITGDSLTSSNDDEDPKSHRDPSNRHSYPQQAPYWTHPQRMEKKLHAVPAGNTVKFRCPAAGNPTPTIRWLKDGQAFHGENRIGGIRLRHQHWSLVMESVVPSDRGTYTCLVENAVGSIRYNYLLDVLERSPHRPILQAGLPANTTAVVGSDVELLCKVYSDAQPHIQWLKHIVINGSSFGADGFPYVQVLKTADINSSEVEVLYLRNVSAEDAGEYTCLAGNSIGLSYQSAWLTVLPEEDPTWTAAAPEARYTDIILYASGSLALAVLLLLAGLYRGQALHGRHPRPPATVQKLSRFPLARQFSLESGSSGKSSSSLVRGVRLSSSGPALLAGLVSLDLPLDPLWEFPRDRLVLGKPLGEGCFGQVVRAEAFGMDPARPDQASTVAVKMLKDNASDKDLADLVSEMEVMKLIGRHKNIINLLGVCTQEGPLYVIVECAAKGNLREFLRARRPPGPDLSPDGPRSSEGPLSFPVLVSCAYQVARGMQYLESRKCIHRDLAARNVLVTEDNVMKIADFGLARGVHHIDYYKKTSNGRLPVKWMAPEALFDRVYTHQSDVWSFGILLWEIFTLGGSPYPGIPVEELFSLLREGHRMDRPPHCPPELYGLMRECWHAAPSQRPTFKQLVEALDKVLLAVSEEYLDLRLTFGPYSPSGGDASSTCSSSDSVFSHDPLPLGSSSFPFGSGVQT
Sequence of Serine/threonine-protein kinase 24 (Homo sapiens) (Q9Y6E0 whole entry, looked up): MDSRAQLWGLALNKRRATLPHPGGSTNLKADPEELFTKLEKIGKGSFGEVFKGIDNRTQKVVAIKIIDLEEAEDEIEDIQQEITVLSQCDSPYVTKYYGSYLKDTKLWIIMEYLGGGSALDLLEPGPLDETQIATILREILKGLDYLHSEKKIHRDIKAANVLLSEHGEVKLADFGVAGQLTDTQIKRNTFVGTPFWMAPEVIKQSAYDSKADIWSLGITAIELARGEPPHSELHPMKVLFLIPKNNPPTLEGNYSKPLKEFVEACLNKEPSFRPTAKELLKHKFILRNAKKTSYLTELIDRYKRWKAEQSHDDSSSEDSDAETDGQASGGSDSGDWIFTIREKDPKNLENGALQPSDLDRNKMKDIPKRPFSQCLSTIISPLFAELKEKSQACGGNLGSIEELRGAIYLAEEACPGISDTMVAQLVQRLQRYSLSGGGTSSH
Sequence of Serine/threonine-protein kinase 33 (Homo sapiens) (Q9BYT3 whole entry, looked up): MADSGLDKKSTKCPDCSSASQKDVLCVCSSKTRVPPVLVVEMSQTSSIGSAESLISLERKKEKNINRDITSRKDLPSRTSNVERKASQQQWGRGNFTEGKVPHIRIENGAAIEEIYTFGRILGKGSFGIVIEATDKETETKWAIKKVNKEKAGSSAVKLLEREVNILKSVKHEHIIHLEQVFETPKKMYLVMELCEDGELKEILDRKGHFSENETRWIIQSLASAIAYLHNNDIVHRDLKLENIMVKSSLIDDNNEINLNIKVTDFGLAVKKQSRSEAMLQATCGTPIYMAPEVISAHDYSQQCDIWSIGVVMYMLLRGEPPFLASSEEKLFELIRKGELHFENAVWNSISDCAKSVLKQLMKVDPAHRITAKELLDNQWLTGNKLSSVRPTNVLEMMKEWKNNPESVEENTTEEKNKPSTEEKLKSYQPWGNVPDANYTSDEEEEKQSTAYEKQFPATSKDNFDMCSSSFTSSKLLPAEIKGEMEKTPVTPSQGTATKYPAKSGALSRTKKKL
Sequence of Receptor-type tyrosine-protein kinase FLT3 (Homo sapiens) (P36888 whole entry): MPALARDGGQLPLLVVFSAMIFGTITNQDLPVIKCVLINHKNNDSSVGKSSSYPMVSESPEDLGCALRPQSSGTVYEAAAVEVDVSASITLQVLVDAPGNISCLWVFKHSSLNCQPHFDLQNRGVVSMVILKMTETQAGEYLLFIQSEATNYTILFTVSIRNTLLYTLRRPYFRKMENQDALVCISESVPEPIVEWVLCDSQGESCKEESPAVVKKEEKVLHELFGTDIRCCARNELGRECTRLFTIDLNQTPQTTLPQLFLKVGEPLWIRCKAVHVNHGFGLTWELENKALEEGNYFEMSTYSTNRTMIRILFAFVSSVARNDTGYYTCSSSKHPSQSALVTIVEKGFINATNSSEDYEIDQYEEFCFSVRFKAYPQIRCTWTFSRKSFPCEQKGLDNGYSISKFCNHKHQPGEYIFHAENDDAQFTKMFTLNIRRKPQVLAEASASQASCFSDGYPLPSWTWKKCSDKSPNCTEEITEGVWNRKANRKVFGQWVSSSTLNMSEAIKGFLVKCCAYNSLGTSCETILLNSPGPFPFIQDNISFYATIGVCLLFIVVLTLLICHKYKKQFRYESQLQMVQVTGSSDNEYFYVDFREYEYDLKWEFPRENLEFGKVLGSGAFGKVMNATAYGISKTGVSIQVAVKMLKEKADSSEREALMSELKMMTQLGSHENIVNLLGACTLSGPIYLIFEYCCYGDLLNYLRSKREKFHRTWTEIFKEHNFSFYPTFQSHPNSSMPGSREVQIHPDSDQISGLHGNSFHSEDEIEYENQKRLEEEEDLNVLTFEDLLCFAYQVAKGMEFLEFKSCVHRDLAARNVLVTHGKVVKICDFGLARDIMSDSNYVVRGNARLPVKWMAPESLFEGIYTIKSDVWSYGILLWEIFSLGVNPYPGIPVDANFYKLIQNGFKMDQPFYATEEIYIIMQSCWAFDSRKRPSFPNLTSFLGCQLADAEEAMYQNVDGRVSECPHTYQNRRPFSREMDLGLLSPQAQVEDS

C[C@]1(O)C[C@@H](c2nc(-c3ccc4ccc(-c5ccccc5)nc4c3)c3c(N)nccn32)C1
inhibition [1]: -4.3% | inhibition [2]: 9% | inhibition [3]: 6.05% | inhibition [4]: 3.3% | inhibition [5]: 10.2%

C[C@@]1(C(=O)Nc2ccc(F)nc2)CCCN1c1nc(Nc2cc(C3CC3)n[nH]2)c2cccn2n1
inhibition [6]: 3.74% | inhibition [7]: -1.09% | inhibition [8]: -3.28% | inhibition [9]: 3.41% | inhibition [10]: 1.95% | inhibition [11]: -7.52%
